# Values of other authors, collected in paper PMC7395068, “The evolution of strategies to minimise the risk of human drug-induced liver injury (DILI) in drug discovery and development” (Archives of Toxicology, 2020).
# Structures can show the parent of a compound that is named as a salt. Where two headings read alike, the source gives them in different places.
# Legend:
# [1] = cited from earlier work
# human hepatocytes = conditions: cited from earlier work
# [2] = human hepatocyte imaging, ref Xu 2008
# [3] = assignment in Xu 2008, ref Xu 2008
smiles,measurement,setting,value
"Cl[C@H]1[C@H](Cl)[C@@H](Cl)[C@@H](Cl)[C@H](Cl)[C@H]1Cl [1,2,3,4,5,6-hexachlorocyclohexane]",In vivo DILI,[1]; in vivo,+VE
same,Structural based (HCI),human hepatocytes,-VE
CC(=O)Nc1nnc(S(N)(=O)=O)s1 [acetazolamide],Structural based (HCI),"human hepatocytes; In vitro Assay, ref Xu 2008",-VE
CC(=O)c1ccc(S(=O)(=O)NC(=O)NC2CCCCC2)cc1 [acetohexamide],In vivo DILI,[1]; ref Xu 2008,+VE
same,Structural based (HCI),"human hepatocytes; In vitro Assay, ref Xu 2008",+VE
N[C@H](C(=O)O)[C@@H]1CC(Cl)=NO1 [acivicin],In vivo DILI,[1]; ref Xu 2008,-VE
same,Structural based (HCI),"human hepatocytes; In vitro Assay, ref Xu 2008",-VE
Nc1ncnc2c1ncn2[C@@H]1O[C@H](CO)[C@@H](O)[C@H]1O [adenosine],Structural based (HCI),"human hepatocytes; In vitro Assay, ref Xu 2008",-VE
O.O=C1NC(=O)C(=O)C(=O)N1 [alloxan hydrate],In vivo DILI,[1]; ref O'Brien 2006,+VE
same,In vivo DILI,[1]; ref Xu 2008,-VE
same,Structural based (HCI),"human hepatocytes; In vitro Assay, ref Xu 2008",-VE
Nc1ccc(C(=O)O)cc1 [aminobenzoate potassium],Structural based (HCI),"human hepatocytes; In vitro Assay, ref Xu 2008",-VE
COc1cc(NS(C)(=O)=O)ccc1Nc1c2ccccc2nc2ccccc12 [amsacrine],Structural based (HCI),"human hepatocytes; In vitro Assay, ref Xu 2008",+VE
C=C1[C@@H]2CC[C@H]3[C@]4(C)C[C@H](O[C@@H]5O[C@H](CO)[C@@H](OS(=O)(=O)O)[C@H](OS(=O)(=O)O)[C@H]5OC(=O)CC(C)C)C[C@@H](C(=O)O)[C@H]4CC[C@]3(C2)[C@H]1O [atractyloside],In vivo DILI,[1]; ref Xu 2008,+VE
same,Structural based (HCI),"human hepatocytes; In vitro Assay, ref Xu 2008",+VE
C[C@H]1C[C@H]2[C@@H]3CCC4=CC(=O)C=C[C@]4(C)[C@@]3(Cl)[C@@H](O)C[C@]2(C)[C@@]1(O)C(=O)CO [beclomethasone],In vivo DILI,[1]; in vivo,-VE
same,Structural based (HCI),human hepatocytes,-VE
CCOC(=O)[C@H](CCc1ccccc1)N[C@H]1CCc2ccccc2N(CC(=O)O)C1=O [benazepril],Structural based (HCI),"human hepatocytes; In vitro Assay, ref Xu 2008",-VE
C[C@H]1C[C@H]2[C@@H]3CCC4=CC(=O)C=C[C@]4(C)[C@@]3(F)[C@@H](O)C[C@]2(C)[C@@]1(O)C(=O)CO [betamethasone],In vivo DILI,[1]; ref Xu 2008,-VE
same,Structural based (HCI),"human hepatocytes; In vitro Assay, ref Xu 2008",-VE
CC(NC(C)(C)C)C(=O)c1cccc(Cl)c1 (stereo not drawn) [bupropion],Structural based (HCI),"human hepatocytes; In vitro Assay, ref Xu 2008",-VE
CS(=O)(=O)OCCCCOS(C)(=O)=O [busulphan],In vivo DILI,[1]; ref Xu 2008,+VE
same,Structural based (HCI),"human hepatocytes; In vitro Assay, ref Xu 2008",+VE
[Cl][Cd][Cl] [cadmium chloride],In vivo DILI,[1]; ref Xu 2008,+VE
same,Structural based (HCI),"human hepatocytes; In vitro Assay, ref Xu 2008",+VE
CC(C)(CO)[C@@H](O)C(=O)NCCC(=O)O [calcium pantothenate],Structural based (HCI),"human hepatocytes; In vitro Assay, ref Xu 2008",-VE
COC(=O)Nc1nc2ccccc2[nH]1 [carbendazim],In vivo DILI,[1]; in vivo,+VE
same,Structural based (HCI),human hepatocytes,-VE
CC1(C)[C@@H](OC(=O)CCC(=O)[O-])CC[C@]2(C)[C@H]3C(=O)C=C4[C@@H]5C[C@@](C)(C(=O)[O-])CC[C@]5(C)CC[C@@]4(C)[C@]3(C)CC[C@@H]12.[Na+].[Na+] [carbenoxolone disodium],In vivo DILI,[1]; in vivo,-VE
same,Structural based (HCI),human hepatocytes,-VE
OCCN1CCN(CC/C=C2/c3ccccc3Sc3ccc(C(F)(F)F)cc32)CC1 [cis(z)-flupentixol],In vivo DILI,[1]; in vivo,-VE
same,Structural based (HCI),human hepatocytes,-VE
NC1CCN(c2c(F)cc3c(=O)c(C(=O)O)cn(C4CC4)c3c2Cl)C1 (stereo not drawn) [clinafloxacin],In vivo DILI,[1]; ref Xu 2008,-VE
same,Structural based (HCI),"human hepatocytes; In vitro Assay, ref Xu 2008",-VE
N[C@H]1C(O)O[C@H](CO)[C@H](O)[C@@H]1O (stereo partly drawn) [d-galactosamine],In vivo DILI,[1]; in vivo,+VE
same,Structural based (HCI),human hepatocytes,-VE
C#C[C@]1(O)CC[C@H]2[C@@H]3CCC4=Cc5oncc5C[C@]4(C)[C@H]3CC[C@@]21C [danazol],Structural based (HCI),human hepatocytes,-VE
O=c1[nH]cnc2c1ncn2[C@H]1CC[C@@H](CO)O1 [didanosine],Structural based (HCI),"human hepatocytes; In vitro Assay, ref Xu 2008",-VE
CC(C)N(CCC(C(N)=O)(c1ccccc1)c1ccccn1)C(C)C (stereo not drawn) [disopyramide phosphate],In vivo DILI,[1]; ref Xu 2008,+VE
same,Structural based (HCI),"human hepatocytes; In vitro Assay, ref Xu 2008",-VE
CCO.C[C@H]1c2cccc(O)c2C(O)=C2C(=O)[C@]3(O)C(O)=C(C(N)=O)C(=O)[C@@H](N(C)C)[C@@H]3[C@@H](O)[C@@H]21.C[C@H]1c2cccc(O)c2C(O)=C2C(=O)[C@]3(O)C(O)=C(C(N)=O)C(=O)[C@@H](N(C)C)[C@@H]3[C@@H](O)[C@@H]21.Cl.Cl.O [doxycycline hyclate],In vivo DILI,[1]; in vivo,+VE
same,Structural based (HCI),human hepatocytes,+VE
CC[N+](C)(C)c1cccc(O)c1 [edrophonium chloride],Structural based (HCI),human hepatocytes,-VE
C[C@@H](CO)NC(=O)[C@@H]1C=C2c3cccc4[nH]cc(c34)C[C@H]2N(C)C1 [ergonovine maleate],In vivo DILI,[1]; ref Xu 2008,-VE
same,Structural based (HCI),"human hepatocytes; In vitro Assay, ref Xu 2008",-VE
C[C@]12CC[C@@H]3c4ccc(O)cc4CC[C@H]3[C@@H]1CC[C@@H]2O[C@@H]1O[C@H](C(=O)O)[C@@H](O)[C@H](O)[C@H]1O [estradiol 17b glucuronide],In vivo DILI,[1]; in vivo,+VE
same,Structural based (HCI),human hepatocytes,-VE
C#C[C@]1(OC(C)=O)CC[C@H]2[C@@H]3CCC4=C[C@@H](OC(C)=O)CC[C@@H]4[C@H]3CC[C@@]21C [ethynodiol diacetate],Structural based (HCI),"human hepatocytes; In vitro Assay, ref Xu 2008",-VE
N#CC(C#N)=NNc1ccc(OC(F)(F)F)cc1 [fccp],In vivo DILI,[1]; ref O'Brien 2006,+VE
same,In vivo DILI,[1]; ref Xu 2008,+VE
same,Structural based (HCI),"human hepatocytes; In vitro Assay, ref Xu 2008",+VE
CC(C(=O)O)c1cccc(Oc2ccccc2)c1 (stereo not drawn) [fenoprofen sodium],In vivo DILI,[1]; ref Xu 2008,+VE
same,Structural based (HCI),"human hepatocytes; In vitro Assay, ref Xu 2008",+VE
CC(Cc1ccc(O)cc1)NCC(O)c1cc(O)cc(O)c1 (stereo not drawn) [fenoterol hbr],In vivo DILI,[1]; in vivo,+VE
same,Structural based (HCI),human hepatocytes,-VE
O=c1[nH]c(=O)n([C@H]2C[C@H](O)[C@@H](CO)O2)cc1F [floxuridine],In vivo DILI,[1]; […],+VE
same,In vivo DILI,[1]; ref Xu 2008,+VE
same,Structural based (HCI),"human hepatocytes; In vitro Assay, ref Xu 2008",-VE
Nc1nc(=O)[nH]cc1F [flucytosine],Structural based (HCI),"human hepatocytes; In vitro Assay, ref Xu 2008",+VE
COCCCC/C(=N\OCCN)c1ccc(C(F)(F)F)cc1 [fluvoxamine],Structural based (HCI),human hepatocytes,-VE
Nc1nc2ncc(CNc3ccc(C(=O)N[C@@H](CCC(=O)O)C(=O)O)cc3)nc2c(=O)[nH]1 [folate],Structural based (HCI),"human hepatocytes; In vitro Assay, ref Xu 2008",-VE
CC[N+](CC)(CC)CCOc1cccc(OCC[N+](CC)(CC)CC)c1OCC[N+](CC)(CC)CC [gallamine triethiodide],"Structural based (HCI), In vitro Assay",human hepatocytes; [2],-VE
O.O=[N+]([O-])[O][Ga]([O][N+](=O)[O-])[O][N+](=O)[O-] [gallium nitrate hydrate],In vivo DILI,[1]; [3],-VE
same,"Structural based (HCI), In vitro Assay",human hepatocytes; [2],-VE
COc1c(N2CCNC(C)C2)c(F)cc2c(=O)c(C(=O)O)cn(C3CC3)c12 (stereo not drawn) [gatifloxacin],In vivo DILI,[1]; [3],-VE
same,"Structural based (HCI), In vitro Assay",human hepatocytes; [2],-VE
O=c1[nH]c(=O)n([C@H]2C[C@H](O)[C@@H](CO)O2)cc1I [idoxuridine],In vivo DILI,[1]; [3],+VE
same,"Structural based (HCI), In vitro Assay",human hepatocytes; [2],-VE
NC[C@H]1O[C@H](O[C@H]2[C@H](O)[C@@H](O[C@H]3O[C@H](CO)[C@@H](O)[C@H](N)[C@H]3O)[C@H](N)C[C@@H]2N)[C@H](O)[C@@H](O)[C@@H]1O [kanamycin sulfate],Structural based (HCI),"human hepatocytes; In vitro Assay, ref Xu 2008",-VE
N=C(N)NCCC[C@H](N)C(=O)O [l-arginine],Structural based (HCI),"human hepatocytes; In vitro Assay, ref Xu 2008",-VE
CCSCC[C@H](N)C(=O)O [l-ethionine],In vivo DILI,[1]; [3],+VE
same,"Structural based (HCI), In vitro Assay",human hepatocytes; [2],-VE
C[C@H](CCC(=O)O)[C@H]1CC[C@H]2[C@@H]3CC[C@@H]4C[C@H](O)CC[C@]4(C)[C@H]3CC[C@]12C [lithocholic acid],"Structural based (HCI), In vitro Assay",human hepatocytes; [2],-VE
CCn1cc(C(=O)O)c(=O)c2cc(F)c(N3CCNC(C)C3)c(F)c21 (stereo not drawn) [lomefloxacin],Structural based (HCI),"human hepatocytes; In vitro Assay, ref Xu 2008",-VE
O=C(O)/C=C\C(=O)O [maleic acid],Structural based (HCI),"human hepatocytes; In vitro Assay, ref Xu 2008",-VE
COC(=O)Nc1nc2ccc(C(=O)c3ccccc3)cc2[nH]1 [mebendazole],Structural based (HCI),"human hepatocytes; In vitro Assay, ref Xu 2008",+VE
CC(=O)O[C@]1(C(C)=O)CC[C@H]2[C@@H]3C[C@H](C)C4=CC(=O)CC[C@]4(C)[C@H]3CC[C@@]21C [medroxyprogesterone acetate],In vivo DILI,[1]; [3],-VE
same,"Structural based (HCI), In vitro Assay",human hepatocytes; [2],-VE
CN1CCCCC1CCN1c2ccccc2Sc2ccc([S+](C)[O-])cc21 (stereo not drawn) [mesoridazine besylate],In vivo DILI,[1]; [3],+VE
same,"Structural based (HCI), In vitro Assay",human hepatocytes; [2],-VE
COc1cccc(OC)c1C(=O)N[C@@H]1C(=O)N2[C@@H]1SC(C)(C)[C@@H]2C(=O)O [methicillin sodium],"Structural based (HCI), In vitro Assay",human hepatocytes; [2],-VE
COc1ccc(OC)c(C(O)C(C)N)c1 (stereo not drawn) [methoxamine],In vivo DILI,[1]; [3],-VE
same,"Structural based (HCI), In vitro Assay",human hepatocytes; [2],-VE
CC[C@@H](CO)NC(=O)[C@@H]1C=C2c3cccc4[nH]cc(c34)C[C@H]2N(C)C1 [methylergonovine maleate],"Structural based (HCI), In vitro Assay",human hepatocytes; [2],-VE
C[C@H]1C(=O)O[C@@H]2CCN3CC=C(COC(=O)[C@](C)(O)[C@]1(C)O)[C@H]23 [monocrotaline],In vivo DILI,[1]; in vivo,+VE
same,"Structural based (HCI), In vitro Assay",human hepatocytes,-VE
C=C1CC[C@@]2(O)[C@H]3Cc4ccc(O)c5c4[C@@]2(CCN3CC2CC2)[C@H]1O5 [nalmefene],In vivo DILI,[1]; [3],-VE
same,"Structural based (HCI), In vitro Assay",human hepatocytes; [2],-VE
CCCOc1ccc2[nH]c(NC(=O)OC)nc2c1 [oxybendazole],In vivo DILI,[1]; [3],+VE
same,"Structural based (HCI), In vitro Assay",human hepatocytes; [2],-VE
NCCC(O)(P(=O)(O)O)P(=O)(O)O [pamidronate],Structural based (HCI),"human hepatocytes; In vitro Assay, ref Xu 2008",-VE
NC[C@@H]1O[C@H](O[C@H]2[C@@H](O)[C@H](O[C@@H]3[C@@H](O)[C@H](N)C[C@H](N)[C@H]3O[C@H]3O[C@H](CO)[C@@H](O)[C@H](O)[C@H]3N)O[C@@H]2CO)[C@H](N)[C@@H](O)[C@@H]1O [paromomycin],"Structural based (HCI), In vitro Assay",human hepatocytes; [2],-VE
CC1(C)S[C@@H]2[C@H](NC(=O)Cc3ccccc3)C(=O)N2[C@H]1C(=O)O [penicillin g],Structural based (HCI),"human hepatocytes; In vitro Assay, ref Xu 2008",-VE
CCOc1ccc(NC(C)=O)cc1 [phenacetin],Structural based (HCI),"human hepatocytes; In vitro Assay, ref Xu 2008",+VE
C[C@]12C=CC(=O)C=C1CC[C@@H]1[C@@H]2C(=O)C[C@@]2(C)[C@H]1CC[C@]2(O)C(=O)CO [prednisone],Structural based (HCI),"human hepatocytes; In vitro Assay, ref Xu 2008",-VE
CN(C)CCCN1c2ccccc2Sc2ccccc21 [promazine],In vivo DILI,[1]; [3],-VE
same,"Structural based (HCI), In vitro Assay",human hepatocytes; [2],-VE
CN1CCN(CC/C=C2/c3ccccc3Sc3ccc(S(=O)(=O)N(C)C)cc32)CC1 [thiothixene],Structural based (HCI),"human hepatocytes; In vitro Assay, ref Xu 2008",-VE
Nc1ncnc2c1ncn2[C@@H]1O[C@H](CO)[C@@H](O)[C@@H]1O [vidarabine],Structural based (HCI),"human hepatocytes; In vitro Assay, ref Xu 2008",-VE
